Laboratory results published in patent publication US8685992B2, “Histone deacetylase inhibitors based simultaneously on trisubstituted 1H-pyrroles and aromatic and heteroaromatic spacers” (Universidad del País Vasco, priority 2009, dated 2014).

Tests used:
SK-MES-1 = assay: Cancer cell growth inhibition, SK-MES-1; type: cell-based, human; conditions: Homo sapiens; SK-MES-1, Lung Cancer, 72 h treatment
Experimental: (§1) Cell culture-based assays were used to evaluate the ability of compounds of the invention to inhibit cancer cell growth inhibition.
(§2) Cells were obtained from the American Type Culture Collection (ATCC). Cells were cultured at 37° C. with 5% CO2 in the appropriate growth medium (see table below), and harvested respectively during the logarithmic growth period and counted with hemocytometer. The cell viability was over 98% by trypan blue exclusion. Cell concentrations were adjusted between 5×10^4 and 2×10^5 cells/ml with respective medium.
(§3) Stock solutions of test compounds and positive drugs Doxorubicin (Zhejiang, Haizheng, China), Paclitaxel (Beijing, Xiehe, China), Vincristin (Shenzhen Wanle, China), 5-FU (Tianjin jinyaoanjisuan, China), Irinotecan (Jiangsu Hengrui, China) and Cisplatin Nanjing zhiyao, China) were prepared in dimethyl sulphoxide (DMSO) or PBS at 20 mM.
(§4) All treatments were performed in triplicate. 10 μl drug solution was added to each well and incubated for 72 hours. At the end of the incubation, 20 μl of the freshly prepared MTS/PMS mixture solution was added to each well and incubated for 4 hours at 37° C. in a humidified, 5% CO2 atmosphere. Absorbance was read at 490 nm using SpectraMAX Plus microplate spectrophotometer. […] In order to calculate IC50, a dose-responsive curve was fitted using nonlinear regression model with a sigmoidal dose response.

Human HDAC2 = Human HDAC2 (Homo sapiens (Human), UniProt Q92769); assay: HDAC2 fluorogenic peptide deacetylation assay; type: biochemical; conditions: human HDAC2, 50 μM substrate, 30° C., 2 h; read-out: IC50 (nM) of enzyme activity HDAC2
Human HDAC6 = Human HDAC6 (Homo sapiens (Human), UniProt Q9UBN7); assay: HDAC6 fluorogenic peptide deacetylation assay; type: biochemical; conditions: human HDAC6, 50 μM substrate, 30° C., 2 h; read-out: IC50 (nM) of enzyme activity HDAC6
Human HDAC1 = Human HDAC1 (Homo sapiens (Human), UniProt Q13547); assay: HDAC1 fluorogenic peptide deacetylation assay; type: biochemical; conditions: human HDAC1, 50 μM substrate, 30° C., 2 h; read-out: IC50 (nM) of enzyme activity HDAC1
786-O = assay: Cancer cell growth inhibition, 786-O; type: cell-based, human; conditions: Homo sapiens, 786-0, Kindney Cancer, 72 h treatment
Experimental: as §1, §2, §3, §4

Calu-6 = assay: Cancer cell growth inhibition, Calu-6; type: cell-based, human; conditions: Homo sapiens; Calu-6, Lung Cancer, 72 h treatment
Experimental: as §1, §2, §3, §4

PANC-1 = assay: Cancer cell growth inhibition, PANC-1; type: cell-based, human; conditions: Homo sapiens; PANC-1, Pancreatic Cancer, 72 h treatment
Experimental: as §1, §2, §3, §4

U87MG = assay: Cancer cell growth inhibition, U87MG; type: cell-based, human; conditions: Homo sapiens, U-87 MG, Glioblastoma, 72 h treatment
Experimental: as §1, §2, §3, §4

Hep3B = assay: Cancer cell growth inhibition, Hep3B; type: cell-based, human; conditions: Homo sapiens, Liver Cancer, 72 h treatment
Experimental: as §1, §2, §3, §4

A549 = assay: Cancer cell growth inhibition, A549; type: cell-based, human; conditions: Homo sapiens; A549, Lung Cancer, 72 h treatment
Experimental: as §1, §2, §3, §4

CNE2 = assay: Cancer cell growth inhibition, CNE2; type: cell-based, human; conditions: Homo sapiens, CNE-2; CNE2, Nasopharyngeal Cancer, 72 h treatment
Experimental: as §1, §2, §3, §4

MDA-MB-231 = assay: Cancer cell growth inhibition, MDA-MB-231; type: cell-based, human; conditions: Homo sapiens; MDA-MB-231, Breast Cancer, 72 h treatment
Experimental: as §1, §2, §3, §4

SK-BR-3 = assay: Cancer cell growth inhibition, SK-BR-3; type: cell-based, human; conditions: Homo sapiens; SK-BR-3, Breast Cancer, 72 h treatment
Experimental: as §1, §2, §3, §4

143b = assay: Cancer cell growth inhibition, 143b; type: cell-based; conditions: Homo sapiens, Osteosarcoma, 72 h treatment
Experimental: as §1, §2, §3, §4

SK-HEP-1 = assay: Cancer cell growth inhibition, SK-HEP-1; type: cell-based; conditions: Homo sapiens, SK-HEP1; SK-HEP-1, Liver Cancer, 72 h treatment
Experimental: as §1, §2, §3, §4

DLD-1 = assay: Cancer cell growth inhibition, DLD-1; type: cell-based, human; conditions: Homo sapiens; DLD-1, Colorectal Cancer, 72 h treatment
Experimental: as §1, §2, §3, §4

Human HDAC3/NcoR2 = Human HDAC3/NcoR2 (Homo sapiens (Human), UniProt O15379); assay: HDAC3 fluorogenic peptide deacetylation assay; type: biochemical; conditions: human HDAC3/NcoR2, 50 μM substrate, 30° C., 2 h; read-out: IC50 (nM) of enzyme activity HDAC3
BGC823 = assay: Cancer cell growth inhibition, BGC823; type: cell-based, human; conditions: Homo sapiens, BGC-823; BGC823, Gastric Cancer, 72 h treatment
Experimental: as §1, §2, §3, §4

NCI-H460 = assay: Cancer cell growth inhibition, NCI-H460; type: cell-based, human; conditions: Homo sapiens; NCI-H460, Lung Cancer, 72 h treatment
Experimental: as §1, §2, §3, §4

A375 = assay: Cancer cell growth inhibition, A375; type: cell-based, human; conditions: Homo sapiens, A-375; A375, Melanoma, 72 h treatment
Experimental: as §1, §2, §3, §4

Colo205 = assay: Cancer cell growth inhibition, Colo205; type: cell-based; conditions: Homo sapiens, COLO 205; Colo205, Colorectal Cancer, 72 h treatment
Experimental: as §1, §2, §3, §4

PC-3 = assay: Cancer cell growth inhibition, PC-3; type: cell-based, human; conditions: Homo sapiens; PC-3, Prostate Cancer, 72 h treatment
Experimental: as §1, §2, §3, §4

BT474 = assay: Cancer cell growth inhibition, BT474; type: cell-based; conditions: Homo sapiens, BT-474; BT474, Breast Cancer, 72 h treatment
Experimental: as §1, §2, §3, §4

SK-OV-3 = assay: Cancer cell growth inhibition, SK-OV-3; type: cell-based, human; conditions: Homo sapiens; SK-OV-3, Ovarian Cancer, 72 h treatment
Experimental: as §1, §2, §3, §4

MCF-7 = assay: Cancer cell growth inhibition, MCF-7; type: cell-based, human; conditions: Homo sapiens, MCF7; MCF-7, Breast Cancer, 72 h treatment
Experimental: as §1, §2, §3, §4

Human HDAC11 = Human HDAC11 (Homo sapiens (Human), UniProt Q96DB2); assay: HDAC11 fluorogenic peptide deacetylation assay; type: biochemical; conditions: human HDAC11, 50 μM substrate, 30° C., 2 h; read-out: IC50 (nM) of enzyme activity HDAC11
Human HDAC5 = Human HDAC5 (Homo sapiens (Human), UniProt Q9UQL6); assay: HDAC5 fluorogenic peptide deacetylation assay; type: biochemical; conditions: human HDAC5, 50 μM substrate, 30° C., 2 h; read-out: IC50 (nM) of enzyme activity HDAC5
Sequence of Human HDAC5 (Q9UQL6 other isoform, or with tags, fused parts or gaps): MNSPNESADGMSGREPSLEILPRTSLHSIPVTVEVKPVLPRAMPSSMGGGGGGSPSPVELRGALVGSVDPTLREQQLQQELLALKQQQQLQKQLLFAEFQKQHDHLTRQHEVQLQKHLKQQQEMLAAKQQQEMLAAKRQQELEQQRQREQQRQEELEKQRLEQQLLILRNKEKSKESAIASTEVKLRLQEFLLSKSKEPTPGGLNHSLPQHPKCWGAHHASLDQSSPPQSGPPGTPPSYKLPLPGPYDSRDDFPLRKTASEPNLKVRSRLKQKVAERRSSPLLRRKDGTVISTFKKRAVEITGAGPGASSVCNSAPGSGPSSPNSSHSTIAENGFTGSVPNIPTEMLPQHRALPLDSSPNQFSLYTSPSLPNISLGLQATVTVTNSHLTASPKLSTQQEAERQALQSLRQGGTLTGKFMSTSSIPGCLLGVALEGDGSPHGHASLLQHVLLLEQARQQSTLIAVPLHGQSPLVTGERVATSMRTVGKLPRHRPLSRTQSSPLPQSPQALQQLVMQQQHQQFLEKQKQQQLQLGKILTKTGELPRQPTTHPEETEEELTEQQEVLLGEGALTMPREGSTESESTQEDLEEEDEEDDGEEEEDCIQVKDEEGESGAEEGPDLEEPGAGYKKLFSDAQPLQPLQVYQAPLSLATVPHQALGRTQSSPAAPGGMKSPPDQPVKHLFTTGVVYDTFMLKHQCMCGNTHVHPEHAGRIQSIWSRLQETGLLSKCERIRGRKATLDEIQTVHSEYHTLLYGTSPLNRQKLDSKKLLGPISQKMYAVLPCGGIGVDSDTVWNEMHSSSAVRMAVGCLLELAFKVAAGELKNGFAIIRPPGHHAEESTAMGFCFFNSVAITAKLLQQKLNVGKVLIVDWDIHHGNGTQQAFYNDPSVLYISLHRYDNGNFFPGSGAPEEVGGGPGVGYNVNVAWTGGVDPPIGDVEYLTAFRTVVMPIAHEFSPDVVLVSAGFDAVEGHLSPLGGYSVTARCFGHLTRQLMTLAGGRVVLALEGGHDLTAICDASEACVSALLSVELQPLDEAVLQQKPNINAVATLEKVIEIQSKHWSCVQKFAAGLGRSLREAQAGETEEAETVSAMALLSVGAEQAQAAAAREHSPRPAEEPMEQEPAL

Sequence of Human HDAC11 (Q96DB2 whole entry): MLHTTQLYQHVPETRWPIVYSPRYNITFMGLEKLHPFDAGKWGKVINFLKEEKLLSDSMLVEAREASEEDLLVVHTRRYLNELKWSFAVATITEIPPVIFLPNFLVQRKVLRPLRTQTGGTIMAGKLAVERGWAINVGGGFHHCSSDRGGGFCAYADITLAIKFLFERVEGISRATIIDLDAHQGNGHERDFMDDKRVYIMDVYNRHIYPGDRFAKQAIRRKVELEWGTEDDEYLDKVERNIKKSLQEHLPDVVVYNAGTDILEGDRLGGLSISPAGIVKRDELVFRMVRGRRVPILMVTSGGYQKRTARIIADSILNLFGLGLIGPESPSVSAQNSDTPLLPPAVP
Sequence of Human HDAC2 (Q92769 whole entry): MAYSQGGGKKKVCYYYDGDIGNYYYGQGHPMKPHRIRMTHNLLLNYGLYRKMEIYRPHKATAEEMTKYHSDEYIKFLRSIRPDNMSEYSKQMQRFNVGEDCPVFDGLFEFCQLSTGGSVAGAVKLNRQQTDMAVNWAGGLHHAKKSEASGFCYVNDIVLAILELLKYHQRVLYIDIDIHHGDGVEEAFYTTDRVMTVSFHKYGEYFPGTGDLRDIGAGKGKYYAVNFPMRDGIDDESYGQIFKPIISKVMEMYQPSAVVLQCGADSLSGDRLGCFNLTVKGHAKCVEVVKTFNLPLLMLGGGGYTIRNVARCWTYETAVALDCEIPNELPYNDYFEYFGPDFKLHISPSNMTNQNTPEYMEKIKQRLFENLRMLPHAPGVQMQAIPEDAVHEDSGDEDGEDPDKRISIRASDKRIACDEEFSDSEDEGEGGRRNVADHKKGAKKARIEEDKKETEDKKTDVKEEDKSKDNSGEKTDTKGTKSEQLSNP
Sequence of Human HDAC6 (Q9UBN7 whole entry): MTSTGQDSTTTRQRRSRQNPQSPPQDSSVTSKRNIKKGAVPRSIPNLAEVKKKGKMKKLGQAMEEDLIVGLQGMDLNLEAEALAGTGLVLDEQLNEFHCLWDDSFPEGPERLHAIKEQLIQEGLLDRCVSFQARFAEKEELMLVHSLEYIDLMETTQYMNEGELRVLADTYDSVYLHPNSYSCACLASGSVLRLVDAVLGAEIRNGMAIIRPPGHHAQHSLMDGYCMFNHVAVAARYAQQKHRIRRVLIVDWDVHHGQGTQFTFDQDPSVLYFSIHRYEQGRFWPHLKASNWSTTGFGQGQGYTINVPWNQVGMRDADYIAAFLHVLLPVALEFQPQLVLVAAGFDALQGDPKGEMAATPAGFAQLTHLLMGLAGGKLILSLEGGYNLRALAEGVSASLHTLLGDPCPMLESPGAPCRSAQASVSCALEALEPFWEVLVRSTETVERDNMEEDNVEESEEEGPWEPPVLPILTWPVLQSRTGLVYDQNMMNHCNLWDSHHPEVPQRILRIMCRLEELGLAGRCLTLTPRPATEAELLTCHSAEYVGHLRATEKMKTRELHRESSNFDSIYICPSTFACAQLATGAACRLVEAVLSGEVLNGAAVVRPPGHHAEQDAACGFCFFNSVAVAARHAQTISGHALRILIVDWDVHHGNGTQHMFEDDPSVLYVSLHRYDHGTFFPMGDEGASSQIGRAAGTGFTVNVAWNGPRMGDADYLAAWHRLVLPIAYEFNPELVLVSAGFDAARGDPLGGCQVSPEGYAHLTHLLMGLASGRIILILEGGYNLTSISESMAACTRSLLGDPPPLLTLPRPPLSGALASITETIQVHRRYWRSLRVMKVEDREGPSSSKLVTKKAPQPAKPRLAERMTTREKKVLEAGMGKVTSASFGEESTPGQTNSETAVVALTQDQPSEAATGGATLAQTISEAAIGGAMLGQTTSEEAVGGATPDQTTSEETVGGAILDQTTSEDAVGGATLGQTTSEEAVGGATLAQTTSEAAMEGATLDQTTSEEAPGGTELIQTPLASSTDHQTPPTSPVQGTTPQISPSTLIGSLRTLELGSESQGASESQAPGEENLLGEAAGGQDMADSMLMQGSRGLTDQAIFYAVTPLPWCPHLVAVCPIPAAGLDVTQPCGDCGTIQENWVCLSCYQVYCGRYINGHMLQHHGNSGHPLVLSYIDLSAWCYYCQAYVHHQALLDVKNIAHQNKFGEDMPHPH
Sequence of Human HDAC1 (Q13547 whole entry): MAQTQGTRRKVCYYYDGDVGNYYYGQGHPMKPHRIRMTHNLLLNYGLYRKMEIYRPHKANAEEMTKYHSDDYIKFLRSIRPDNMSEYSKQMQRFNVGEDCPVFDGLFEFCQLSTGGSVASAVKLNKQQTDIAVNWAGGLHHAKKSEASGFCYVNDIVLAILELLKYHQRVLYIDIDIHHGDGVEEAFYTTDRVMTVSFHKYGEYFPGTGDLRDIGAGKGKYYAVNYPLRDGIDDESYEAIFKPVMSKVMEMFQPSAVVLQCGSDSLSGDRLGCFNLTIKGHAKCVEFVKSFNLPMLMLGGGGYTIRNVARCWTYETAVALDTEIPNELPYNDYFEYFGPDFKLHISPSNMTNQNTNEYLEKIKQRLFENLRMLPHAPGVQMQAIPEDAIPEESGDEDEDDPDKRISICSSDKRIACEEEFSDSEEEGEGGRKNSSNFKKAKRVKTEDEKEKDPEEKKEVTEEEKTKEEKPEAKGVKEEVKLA
Sequence of Human HDAC3/NcoR2 (O15379 whole entry): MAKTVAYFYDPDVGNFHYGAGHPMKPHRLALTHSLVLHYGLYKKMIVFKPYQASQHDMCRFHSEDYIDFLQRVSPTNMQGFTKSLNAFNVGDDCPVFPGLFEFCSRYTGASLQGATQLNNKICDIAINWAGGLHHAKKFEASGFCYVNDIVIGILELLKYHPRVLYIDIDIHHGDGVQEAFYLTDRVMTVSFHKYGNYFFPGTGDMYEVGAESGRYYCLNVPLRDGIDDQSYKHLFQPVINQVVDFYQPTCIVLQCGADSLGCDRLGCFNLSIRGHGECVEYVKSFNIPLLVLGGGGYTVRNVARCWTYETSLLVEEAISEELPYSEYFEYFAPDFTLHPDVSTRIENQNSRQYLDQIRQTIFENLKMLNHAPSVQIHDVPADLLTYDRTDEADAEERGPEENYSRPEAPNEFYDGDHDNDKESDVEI
Sequence of Human HDAC3/NcoR2 (Q9Y618 395-489 partner): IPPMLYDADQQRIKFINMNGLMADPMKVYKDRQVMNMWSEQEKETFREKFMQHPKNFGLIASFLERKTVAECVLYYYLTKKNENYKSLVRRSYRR

Compound | IC50 (SK-MES-1) | IC50 (Human HDAC2) | IC50 (Human HDAC1) | IC50 (786-O) | IC50 (Calu-6) | IC50 (PANC-1) | IC50 (U87MG) | IC50 (Hep3B) | IC50 (A549) | IC50 (CNE2) | IC50 (MDA-MB-231) | IC50 (SK-BR-3) | IC50 (143b) | IC50 (SK-HEP-1) | IC50 (DLD-1) | IC50 (Human HDAC3/NcoR2) | IC50 (BGC823) | IC50 (NCI-H460) | IC50 (A375) | IC50 (Colo205) | further results
O=C(NO)c1ccc(CNC(=O)c2[nH]c(-c3ccoc3)cc2-c2ccc(O)cc2)cc1 [Example 9, 5-(3-furyl)-N-{4-[(hydroxyamino)carbonyl]benzyl}-3-(4-hydroxyphenyl)-1H-pyrrole-2-carboxamide] | 7.76 µM | 909 nM | 378 nM | 13.4 µM | 9.61 µM | 10.7 µM | 10.8 µM | 3.18 µM | 11.4 µM | 9.54 µM | 4.25 µM | 1.5 µM | 12.9 µM | 4.47 µM | 6.87 µM | 298 nM | 9.68 µM | 10.5 µM | 10.2 µM | 4.91 µM | IC50 (Human HDAC6): 6.8 nM; IC50 (PC-3): 3 µM; IC50 (BT474): 3.63 µM; IC50 (SK-OV-3): 4.17 µM; IC50 (MCF-7): 4.49 µM
O=C(NO)c1ccc(CNC(=O)c2[nH]c(-c3ccc(O)cc3)cc2-c2ccsc2)cc1 [Example 14, N-{4-[(hydroxyamino)carbonyl]benzyl}-5-(4-hydroxyphenyl)-3-(3-thienyl)-1H-pyrrole-2-carboxamide] | 18.5 µM | 318 nM | 84.2 nM | 8.66 µM | 4.07 µM | 9.84 µM | 9.35 µM | 2.7 µM | 11 µM | 11.4 µM | 4.07 µM | 0.335 µM | 2.62 µM | 1.75 µM | 24.5 µM | 124 nM | 13.7 µM | 26.7 µM | 7.7 µM | 1.56 µM | IC50 (Human HDAC6): 0.44 nM; IC50 (Human HDAC11): 319 nM; IC50 (Human HDAC5): 172 nM; IC50 (PC-3): 2.41 µM; IC50 (BT474): 1.63 µM; IC50 (SK-OV-3): 1.63 µM; IC50 (MCF-7): 10.1 µM
O=C(NO)c1ccc(CNC(=O)c2[nH]c(-c3ccc(O)cc3)cc2-c2ccoc2)cc1 [Example 15, 3-(3-furyl)-N-{4-[(hydroxyamino)carbonyl]benzyl}-5-(4-hydroxyphenyl)-1H-pyrrole-2-carboxamide] | 3.51 µM | 144 nM | 49.9 nM | 2.29 µM | 1.22 µM | 6.45 µM | 6.56 µM | 0.859 µM | 2.46 µM | 16.1 µM | 1.83 µM | 0.453 µM | 1.93 µM | 0.45 µM | 4.48 µM | 46.1 nM | 5.14 µM | 6.29 µM | 3.68 µM | 0.365 µM | IC50 (Human HDAC11): 72 nM; IC50 (Human HDAC5): 60 nM; IC50 (PC-3): 0.281 µM; IC50 (BT474): 0.442 µM; IC50 (SK-OV-3): 0.651 µM; IC50 (MCF-7): 2.09 µM
COc1ccc(-c2cc(-c3ccoc3)c(C(=O)NCc3ccc(C(=O)NO)cc3)[nH]2)cc1 [Example 27, 3-(3-furyl)-N-{4-[(hydroxyamino)carbonyl]benzyl}-5-(4-methoxyphenyl)-1H-pyrrole-2-carboxamide] | 0.588 µM | 157 nM | 71 nM | 1.91 µM | 0.492 µM | 0.965 µM | 1.39 µM | 0.614 µM | 1.02 µM | 0.59 µM | 1.49 µM | 0.771 µM | 2.57 µM | 1.1 µM | 0.592 µM | 75 nM | 0.676 µM | 1.68 µM | 1.04 µM | 0.248 µM | IC50 (Human HDAC6): 1.6 nM; IC50 (Human HDAC11): 341 nM; IC50 (Human HDAC5): 222 nM; IC50 (PC-3): 0.42 µM; IC50 (BT474): 0.119 µM; IC50 (SK-OV-3): 1.67 µM; IC50 (MCF-7): 0.377 µM
COc1ccc(-c2cc(-c3ccsc3)c(C(=O)NCc3ccc(C(=O)NO)cc3)[nH]2)cc1 [Example 28, N-{4-[(hydroxyamino)carbonyl]benzyl}-5-(4-methoxyphenyl)-3-(3-thienyl)-1H-pyrrole-2-carboxamide] | 1.78 µM | 392 nM | 184 nM | 10 µM | 0.726 µM | 11.5 µM | 8.96 µM | 4.27 µM | 3.43 µM | 5.01 µM | 73.8 µM | 4.08 µM | 11.1 µM | 9.93 µM | 3.22 µM | 273 nM | 7.79 µM | 12.1 µM | 4.27 µM | 3.1 µM | IC50 (Human HDAC6): 2 nM; IC50 (Human HDAC11): 718 nM; IC50 (Human HDAC5): 640 nM; IC50 (PC-3): 1.31 µM; IC50 (BT474): 12.9 µM; IC50 (SK-OV-3): 8.43 µM; IC50 (MCF-7): 2.77 µM
